Reference: the supplement of paper PMC10307832

Columns and labels:
Test in all cases: relative viability (nuclei count vs DMSO), 5 days (fraction); higher = more cells survive
SGI-1776 + Lapatinib = compound: CN1CCC(CNc2ccc3ncc(-c4cccc(OC(F)(F)F)c4)n3n2)CC1 [SGI-1776] + CS(=O)(=O)CCNCc1ccc(-c2ccc3ncnc(Nc4ccc(OCc5cccc(F)c5)c(Cl)c4)c3c2)o1 [Lapatinib] (partner 2 µM)
Method in brief: (§1)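 Lung cancer cell lines, seeded in 1536-well plates, were treated the following day by pin tool with a single drug or with five library-drug doses (not always all listed) in √10 steps on top of a fixed anchor-drug dose. Cells were fixed and nuclei stained in one step after 5 days, and nuclei were counted. Relative viability is the nuclei count for treated wells divided by that for vehicle wells, reported as medians of duplicate plates.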

SGI-1776 + Olaparib = compound: CN1CCC(CNc2ccc3ncc(-c4cccc(OC(F)(F)F)c4)n3n2)CC1 [SGI-1776] + O=C(c1cc(Cc2n[nH]c(=O)c3ccccc23)ccc1F)N1CCN(C(=O)C2CC2)CC1 [Olaparib] (partner 8 µM)
Method in brief: as §1

[1] = compound: C1COCCN1C2=NC(=NC3=C2OC4=C3C=CC=N4)C5=CC(=CC=C5)NC(=O)C6=CN=C(C=C6)N + CC(=O)c1c(C)c2cnc(Nc3ccc(N4CCNCC4)cn3)nc2n(C2CCCC2)c1=O [Palbociclib] (partner 0.5 µM)
Method in brief: as §1

[2] = compound: C1COCCN1C2=NC(=NC3=C2OC4=C3C=CC=N4)C5=CC(=CC=C5)NC(=O)C6=CN=C(C=C6)N + CS(=O)(=O)N1CCN(Cc2cc3nc(-c4cccc5[nH]ncc45)nc(N4CCOCC4)c3s2)CC1 [Pictilisib] (partner 1 µM)
Method in brief: as §1

Cell Line | relative viability (SGI-1776 + Lapatinib; first compound 0.08 µM) | relative viability (SGI-1776 + Lapatinib; first compound 0.8 µM) | relative viability (SGI-1776 + Lapatinib; first compound 2.53 µM) | relative viability (SGI-1776 + Lapatinib; first compound 8 µM) | relative viability (SGI-1776 + Olaparib; first compound 0.08 µM) | relative viability (SGI-1776 + Olaparib; first compound 0.8 µM) | relative viability (SGI-1776 + Olaparib; first compound 2.53 µM) | relative viability (SGI-1776 + Olaparib; first compound 8 µM) | relative viability ([1]; first compound 0.02 µM) | relative viability ([1]; first compound 0.06325 µM) | relative viability ([1]; first compound 0.2 µM) | relative viability ([1]; first compound 0.6325 µM) | relative viability ([1]; first compound 2 µM) | relative viability ([2]; first compound 0.02 µM) | relative viability ([2]; first compound 0.06325 µM) | relative viability ([2]; first compound 0.2 µM) | relative viability ([2]; first compound 0.6325 µM) | relative viability ([2]; first compound 2 µM)
NCI-H838 | 0.96 | 1.22 | 0.942 | 0.564 | 0.776 | 0.754 | 0.695 | 0.56 | 0.194 | 0.212 | 0.195 | 0.197 | 0.175 | 0.481 | 0.446 | 0.45 | 0.362 | 0.311
HARA | 0.886 | 0.856 | 0.617 | 0.586 | 1.09 | 0.986 | 0.667 | 0.57 | 0.207 | 0.242 | 0.246 |  | 0.263 | 0.273 | 0.319 | 0.329 | 0.326 | 0.291
NCI-H23 | 1.21 | 0.984 | 0.917 | 1.17 | 0.32 | 0.331 | 0.299 | 0.332 | 0.622 | 0.555 | 0.457 | 0.524 | 0.225 | 0.473 | 0.504 | 0.409 | 0.432 | 0.32
LOU-NH91 | 0.818 | 0.824 | 0.75 | 0.588 | 0.968 | 0.986 | 0.957 | 0.773 | 0.541 | 0.551 | 0.565 | 0.49 | 0.535 | 0.48 | 0.531 | 0.51 | 0.521 | 0.512
LCLC-103H |  |  |  |  | 0.781 | 0.776 | 0.716 | 0.7 | 0.498 | 0.453 | 0.546 | 0.467 | 0.403 | 0.533 | 0.647 | 0.555 | 0.678 | 0.551
SW 1573 | 1.29 | 1.09 | 1.15 | 1.06 | 0.381 | 0.428 | 0.475 | 0.297 | 0.397 | 0.381 | 0.37 | 0.429 | 0.261 | 0.555 | 0.54 | 0.621 | 0.534 | 0.344
EKVX | 0.225 | 0.205 | 0.209 | 0.166 | 0.827 | 0.906 | 0.875 | 0.737 | 0.357 | 0.393 | 0.353 | 0.373 | 0.438 | 0.408 | 0.408 | 0.44 | 0.379 | 0.439
IA-LM | 0.923 | 0.726 |  | 0.72 | 0.97 | 0.785 | 0.919 | 0.846 |  |  |  |  |  |  | 0.301 | 0.319 | 0.353 | 0.182
HCC-827 | 0.168 | 0.201 | 0.16 | 0.194 | 0.694 | 0.615 | 0.739 | 0.658 | 0.392 | 0.537 | 0.491 | 0.538 | 0.34 | 0.99 | 1.1 | 1.12 | 0.986 | 0.935
